Converted amounts (≈) assume the structure as drawn. Each block holds one molecule with its values, some of them ahead of it.
Columns and labels:
Assay type in all cases: functional
[1] = system: Candida albicans; experiment: Antifungal activity against Candida albicans SC5314 assessed as reduction in fungal growth incubated for 24 hrs by CLSI based microdilution analysis
[2] = system: Cryptococcus neoformans; experiment: Antifungal activity against Cryptococcus neoformans CGMCC3 1563 assessed as reduction in fungal growth incubated for 72 hrs by CLSI based microdilution analysis
[3] = system: Candida albicans; experiment: Antifungal activity against fluconazole-resistant Candida albicans 13 assessed as inhibition of fungal growth measured for 24 hrs by CLSI based microdilution analysis
[4] = system: Nakaseomyces glabratus; experiment: Antifungal activity against Candida glabrata ATCC 15126 assessed as reduction in fungal growth incubated for 24 hrs by CLSI based microdilution analysis
[5] = system: Candida albicans; experiment: Antifungal activity against fluconazole-resistant Candida albicans 102 assessed as inhibition of fungal growth measured for 24 hrs by CLSI based microdilution analysis
[6] = system: Candida albicans; experiment: Antifungal activity against fluconazole-resistant Candida albicans 112869 assessed as inhibition of fungal growth measured for 24 hrs by CLSI based microdilution analysis
[7] = system: Aspergillus fumigatus; experiment: Antifungal activity against Aspergillus fumigatus CGMCC3 7795 assessed as reduction in fungal growth incubated for 48 hrs by CLSI based microdilution analysis
[8] = system: Candida albicans; experiment: Antifungal activity against fluconazole-resistant Candida albicans 15 assessed as inhibition of fungal growth measured for 24 hrs by CLSI based microdilution analysis
[9] = system: Candida albicans; experiment: Antifungal activity against fluconazole-resistant Candida albicans 901 assessed as inhibition of fungal growth measured for 24 hrs by CLSI based microdilution analysis
[10] = system: Candida parapsilosis; experiment: Antifungal activity against Candida parapsilosis ATCC 22019 assessed as reduction in fungal growth incubated for 24 hrs by CLSI based microdilution analysis; settings: Lodderomyces parapsilosis
[11] = system: Candida tropicalis; experiment: Antifungal activity against Candida tropicalis ATCC 750 assessed as reduction in fungal growth incubated for 24 hrs by CLSI based microdilution analysis
[12] = system: Candida albicans; experiment: Antifungal activity against fluconazole-resistant Candida albicans 24D assessed as inhibition of fungal growth measured for 24 hrs by CLSI based microdilution analysis
[13] = system: Meyerozyma guilliermondii; experiment: Antifungal activity against Meyerozyma guilliermondii ATCC 6260 assessed as reduction in fungal growth incubated for 24 hrs by CLSI based microdilution analysis

- MIC80 [1]: 0.062 µg/mL (≈ 0.13 µM)
SMILES: O=C(c1ccc2ccccc2c1)N1CCN(CC(O)(Cn2cncn2)c2ccc(F)cc2F)CC1 (stereo unspecified)

- MIC80 [1]: 0.062 µg/mL (≈ 0.113 µM)
SMILES: OC(CN1CCN(CCn2ccc3cc(Br)cnc32)CC1)(Cn1cncn1)c1ccc(F)cc1F (stereo unspecified)

- MIC80 [1]: 0.062 µg/mL (≈ 0.104 µM)
SMILES: OC(CN1CCN(CCn2ncc3cc(I)ccc32)CC1)(Cn1cncn1)c1ccc(F)cc1F (stereo unspecified)

- MIC80 [1]: 0.125 µg/mL (≈ 0.251 µM)
SMILES: O=S(=O)(c1ccc(Cl)cc1)N1CCN(CC(O)(Cn2cncn2)c2ccc(F)cc2F)CC1 (stereo unspecified)

- MIC80 [1]: 0.125 µg/mL (≈ 0.231 µM)
SMILES: OC(CN1CCN(CCCCCCn2ccc3ccc(F)cc32)CC1)(Cn1cncn1)c1ccc(F)cc1F (stereo unspecified)

- MIC80 [1]: 0.125 µg/mL (≈ 0.232 µM)
SMILES: COc1ccc2c(ccn2CCCCCN2CCN(CC(O)(Cn3cncn3)c3ccc(F)cc3F)CC2)c1 (stereo unspecified)

- MIC80 [1]: 0.125 µg/mL (≈ 0.245 µM)
SMILES: Cc1ccc2c(c1)C(=O)C(=O)N2CCN1CCN(CC(O)(Cn2cncn2)c2ccc(F)cc2F)CC1 (stereo unspecified)

- MIC80 [1]: 0.125 µg/mL (≈ 0.245 µM)
SMILES: Cc1ccc2oc(=O)c(C(=O)N3CCN(CC(O)(Cn4cncn4)c4ccc(F)cc4F)CC3)cc2c1 (stereo unspecified)

- MIC80 [1]: 0.125 µg/mL (≈ 0.237 µM)
SMILES: OC(CN1CCN(CCCCCn2ccc3ccc(F)cc32)CC1)(Cn1cncn1)c1ccc(F)cc1F (stereo unspecified)

- MIC80 [1]: 0.062 µg/mL (≈ 0.108 µM)
SMILES: O=C1C(=O)N(CCN2CCN(CC(O)(Cn3cncn3)c3ccc(F)cc3F)CC2)c2ccc(Br)cc21 (stereo unspecified)

- MIC80 [1]: 0.125 µg/mL (≈ 0.261 µM)
SMILES: O=C(c1ccc2ncccc2c1)N1CCN(CC(O)(Cn2cncn2)c2ccc(F)cc2F)CC1 (stereo unspecified)

- MIC80 [1]: 0.25 µg/mL (≈ 0.454 µM)
SMILES: OC(CN1CCN(CCn2c3ccccc3c3cc(Cl)ccc32)CC1)(Cn1cncn1)c1ccc(F)cc1F (stereo unspecified)

- MIC80 [1]: 0.25 µg/mL (≈ 0.388 µM)
SMILES: OC(CN1CCN(CCCCCCCCCn2ccc3cc(Br)ccc32)CC1)(Cn1cncn1)c1ccc(F)cc1F (stereo unspecified)

- MIC80 [1]: 0.25 µg/mL (≈ 0.515 µM)
SMILES: O=C(c1ccc2c(c1)OCCO2)N1CCN(CC(O)(Cn2cncn2)c2ccc(F)cc2F)CC1 (stereo unspecified)

SMILES: CCC(C)n1ncn(-c2ccc(N3CCN(c4ccc(OCC5COC(Cn6cncn6)(c6ccc(Cl)cc6Cl)O5)cc4)CC3)cc2)c1=O (stereo unspecified) [ITRACONAZOLE]
- MIC80 [2]: 0.062 µg/mL (≈ 0.0879 µM)
- MIC80 [3]: > 100 µg/mL
- MIC80 [4]: 0.625 µg/mL (≈ 0.886 µM)
- MIC80 [5]: > 100 µg/mL
- MIC80 [6]: > 100 µg/mL
- MIC80 [7]: 0.312 µg/mL (≈ 0.442 µM)
- MIC80 [1]: 0.062 µg/mL (≈ 0.0879 µM)
- MIC80 [8]: > 100 µg/mL
- MIC80 [9]: > 100 µg/mL
- MIC80 [10]: 0.25 µg/mL (≈ 0.354 µM)
- MIC80 [11]: 0.625 µg/mL (≈ 0.886 µM)
- MIC80 [12]: > 100 µg/mL
- MIC80 [13]: 0.25 µg/mL (≈ 0.354 µM)

SMILES: Cc1ccc2c(ccn2CCCN2CCN(CC(O)(Cn3cncn3)c3ccc(F)cc3F)CC2)c1 (stereo unspecified)
- MIC80 [2]: 0.062 µg/mL (≈ 0.125 µM)
- MIC80 [3]: 0.062 µg/mL (≈ 0.125 µM)
- MIC80 [4]: 0.625 µg/mL (≈ 1.26 µM)
- MIC80 [5]: 0.062 µg/mL (≈ 0.125 µM)
- MIC80 [6]: 0.25 µg/mL (≈ 0.505 µM)
- MIC80 [7]: 5 µg/mL (≈ 10.1 µM)
- MIC80 [1]: 0.062 µg/mL (≈ 0.125 µM)
- MIC80 [8]: 2.5 µg/mL (≈ 5.05 µM)
- MIC80 [9]: 5 µg/mL (≈ 10.1 µM)
- MIC80 [10]: 0.125 µg/mL (≈ 0.253 µM)
- MIC80 [11]: 0.625 µg/mL (≈ 1.26 µM)
- MIC80 [12]: 0.125 µg/mL (≈ 0.253 µM)
- MIC80 [13]: 0.125 µg/mL (≈ 0.253 µM)

- MIC80 [1]: 0.5 µg/mL (≈ 0.841 µM)
SMILES: COc1ccc2c(ccn2CCCCCCCCCN2CCN(CC(O)(Cn3cncn3)c3ccc(F)cc3F)CC2)c1 (stereo unspecified)

SMILES: O=[N+]([O-])c1ccc2c(ccn2CCN2CCN(CC(O)(Cn3cncn3)c3ccc(F)cc3F)CC2)c1 (stereo unspecified)
- MIC80 [2]: 0.031 µg/mL (≈ 0.0606 µM)
- MIC80 [3]: 0.062 µg/mL (≈ 0.121 µM)
- MIC80 [4]: 0.312 µg/mL (≈ 0.61 µM)
- MIC80 [5]: 0.031 µg/mL (≈ 0.0606 µM)
- MIC80 [6]: 0.062 µg/mL (≈ 0.121 µM)
- MIC80 [7]: 1.25 µg/mL (≈ 2.44 µM)
- MIC80 [1]: 0.031 µg/mL (≈ 0.0606 µM)
- MIC80 [8]: 1.25 µg/mL (≈ 2.44 µM)
- MIC80 [9]: 1.25 µg/mL (≈ 2.44 µM)
- MIC80 [10]: 0.062 µg/mL (≈ 0.121 µM)
- MIC80 [11]: 0.312 µg/mL (≈ 0.61 µM)
- MIC80 [12]: 0.031 µg/mL (≈ 0.0606 µM)
- MIC80 [13]: 0.062 µg/mL (≈ 0.121 µM)

SMILES: OC(CN1CCN(CCn2ccc3cc(Cl)c(Cl)cc32)CC1)(Cn1cncn1)c1ccc(F)cc1F (stereo unspecified)
- MIC80 [2]: 0.062 µg/mL (≈ 0.116 µM)
- MIC80 [3]: 0.062 µg/mL (≈ 0.116 µM)
- MIC80 [4]: 0.312 µg/mL (≈ 0.583 µM)
- MIC80 [5]: 0.062 µg/mL (≈ 0.116 µM)
- MIC80 [6]: 0.25 µg/mL (≈ 0.467 µM)
- MIC80 [7]: 5 µg/mL (≈ 9.34 µM)
- MIC80 [1]: 0.031 µg/mL (≈ 0.0579 µM)
- MIC80 [8]: 0.625 µg/mL (≈ 1.17 µM)
- MIC80 [9]: 2.5 µg/mL (≈ 4.67 µM)
- MIC80 [10]: 0.125 µg/mL (≈ 0.233 µM)
- MIC80 [11]: 0.312 µg/mL (≈ 0.583 µM)
- MIC80 [12]: 0.062 µg/mL (≈ 0.116 µM)
- MIC80 [13]: 0.125 µg/mL (≈ 0.233 µM)

- MIC80 [1]: 0.125 µg/mL (≈ 0.292 µM)
SMILES: OC(CN1CCN(CCc2ccccc2)CC1)(Cn1cncn1)c1ccc(F)cc1F (stereo unspecified)

- MIC80 [1]: 0.125 µg/mL (≈ 0.218 µM)
SMILES: O=C(c1cc2cc(Br)ccc2oc1=O)N1CCN(CC(O)(Cn2cncn2)c2ccc(F)cc2F)CC1 (stereo unspecified)

- MIC80 [1]: 0.25 µg/mL (≈ 0.487 µM)
SMILES: O=C(c1cc2cc(F)ccc2oc1=O)N1CCN(CC(O)(Cn2cncn2)c2ccc(F)cc2F)CC1 (stereo unspecified)

- MIC80 [1]: 0.062 µg/mL (≈ 0.113 µM)
SMILES: OC(CN1CCN(CCn2ncc3cc(Br)ccc32)CC1)(Cn1cncn1)c1ccc(F)cc1F (stereo unspecified)

SMILES: O=[N+]([O-])c1ccc2c(ccn2CCCN2CCN(CC(O)(Cn3cncn3)c3ccc(F)cc3F)CC2)c1 (stereo unspecified)
- MIC80 [2]: 0.031 µg/mL (≈ 0.059 µM)
- MIC80 [3]: 0.062 µg/mL (≈ 0.118 µM)
- MIC80 [4]: 0.625 µg/mL (≈ 1.19 µM)
- MIC80 [5]: 0.031 µg/mL (≈ 0.059 µM)
- MIC80 [6]: 0.062 µg/mL (≈ 0.118 µM)
- MIC80 [7]: 1.25 µg/mL (≈ 2.38 µM)
- MIC80 [1]: 0.031 µg/mL (≈ 0.059 µM)
- MIC80 [8]: 0.625 µg/mL (≈ 1.19 µM)
- MIC80 [9]: 1.25 µg/mL (≈ 2.38 µM)
- MIC80 [10]: 0.062 µg/mL (≈ 0.118 µM)
- MIC80 [11]: 0.312 µg/mL (≈ 0.594 µM)
- MIC80 [12]: 0.031 µg/mL (≈ 0.059 µM)
- MIC80 [13]: 0.125 µg/mL (≈ 0.238 µM)

- MIC80 [1]: 0.031 µg/mL (≈ 0.0663 µM)
SMILES: O[C@@](CN1CCN(CCn2ncc3ccccc32)CC1)(Cn1cncn1)c1ccc(F)cc1F

- MIC80 [1]: 0.125 µg/mL (≈ 0.256 µM)
SMILES: OC(CN1CCN(CCOc2ccc3c(c2)OCO3)CC1)(Cn1cncn1)c1ccc(F)cc1F (stereo unspecified)

Source: ChEMBL document CHEMBL5338795, “Novel Triazoles with Potent and Broad-Spectrum Antifungal Activity In Vitro and In Vivo” (J Med Chem, 2023)
